Values of other authors in article PMC6315591 (Marine Drugs, 2018).

Test system: muscle nAChR on BC3H-1 cells

α-conotoxin MI
greater affinity at the α/δ versus α/γ interface: 10,000 fold
